Source: US20230087994A1, “TARGETED BIFUNCTIONAL DEGRADERS” (YALE UNIVERSITY, priority 2019, published 2023)
“And” between values parts separate entries of the source, which are not always exact repeats. Identical values can stand only once.

Columns and labels:
[1] = system: ASGPR on the surface of immortalized human hepatocyte HepG2 cells; experiment: DNP-GN3-mediated ternary complex formation: association of fluorescently labeled α-DNP antibody with HepG2 cells in suspension; assay type: cell-based; conditions: for concentration of DNP-GN3 eliciting half-maximal fluorescence association: bell-shaped response, FIG. 86A
Source text: It was investigated whether DNP-GN3 could mediate the formation of a ternary complex between a fluorescently labeled α-DNP antibody and ASGPR on the surface of immortalized human hepatocyte HepG2 cells in suspension. […] The observed bell-shaped response to DNP-GN3 concentration is consistent with the prozone effect commonly observed in systems wherein a ternary complex is formed.

HepG2 cells [2] = experiment: DNP-GN3-mediated endocytosis of fluorescently labeled α-DNP antibody by adherent HepG2 cells; assay type: cell-based, human
Description: It was next explored whether DNP-GN3 mediates the endocytosis of fluorescently labeled α-DNP antibody.
To explore the cellular mechanism of antibody uptake, cells were treated with chemical inhibitors of several endocytic pathways (FIG. 89).

HepG2 cells [3] = experiment: Subcellular localization of α-DNP antibody endocytosed via DNP-GN3 (microscopy); assay type: cell-based, human; conditions: after 12 hours
HepG2 cells [4] = experiment: Western blot of α-DNP antibody degradation in HepG2 cells treated with DNP-GN3; assay type: cell-based, human; conditions: anti-Alexa Fluor 488, FIG. 92A
Description: In addition, western blotting with an antibody directed to Alexa Fluor 488 was used to determine if endocytosed fluorescently labeled α-DNP antibodies are degraded in vitro. […] Signal arising from Alexa Fluor 488 in cell lysates was associated with only full-length antibody after two hours of incubation. After six hours, a lower molecular weight fluorophore-associated protein fragment between 37 and 50 kDa began to appear. An additional protein fragment with a molecular weight between 25 and 37 kDa was observed after 24 hours. […] Together with the above immunofluorescence studies showing the colocalization of α-DNP antibody-derived fluorescence with lysosomes, these studies support that α-DNP antibody degradation is mediated by lysosomal proteases. Lysosomal degradation is further consistent with a mechanism dependent on ASGPR.

[5] = Tolerability of DNP-GN3 and DNP-OH3 in mice (body weight, AST, ALT); assay type: in vivo
Description: FIGS. 93A-93C illustrate that DNP-GN3 and DNP-OH3 are not toxic to mice at all tested concentrations. FIG. 93A: mouse body weight following treatment with DNP-GN3 or DNP-OH3. Statistical differences were analyzed by T test. FIG. 93B: levels of aspartate transaminase (AST) in treated mice. Dashed lines represent the normal range. FIG. 93C: levels of alanine transaminase (ALT) in treated mice. Dashed lines represent the normal range.

PC3 cells = experiment: Human prostate cancer PC3 tumor growth in mice; assay type: in vivo; conditions: control and comparator arms; FIG. 138
Description: The ability of MIF-GN3 to mediate the depletion of MIF in a therapeutically relevant disease model was investigated. […] An experiment was conducted to determine whether the bifunctional molecule MIF-GN3 can deplete sufficient human MIF from serum to slow PC3 tumor growth. Mice were injected with an aliquot of PC3 cells, and the size of the resultant tumors as well as the levels of human MIF in serum were monitored over five weeks. […] Five weeks after the initial PC3 cell injection, the first of the mice reached maximal tumor size ([…]) and was sacrificed (FIG. 138). […] The decrease in human MIF levels mediated by MIF-GN3 is consistent with a mechanism of action in which MIF-GN3 mediates the depletion and degradation of circulating MIF protein. While the α-MIF antibody would not necessarily be expected to decrease the levels of human MIF, it is possible that the antibody mediates MIF neutralization in a manner which masks its signal as determined by ELISA. Alternatively, the α-MIF antibody may mediate depletion or degradation of huMIF by some endocytic mechanism. Another possible explanation is that the α-MIF antibody decrease serum levels of active human MIF to such an extent at early time points that PC3 cells proliferate much more slowly, and therefore fewer cells are actively secreting human MIF.
Mice were sacrificed when their tumor volumes reached 1000 mm^3. […] At this same time point, less than 25% of the mice in any other arm had survived.

α-DNP antibody = experiment: Depletion of α-DNP antibody from serum in mice (ELISA); assay type: in vivo; conditions: i.p.; FIG. 79A
human MIF = target: T1, human MIF (Homo sapiens, UniProt P14174); experiment: Depletion of injected recombinant human MIF from serum in mice; assay type: in vivo; parameters: injected into mice; conditions: control molecules; FIG. 136
T1 sequence (P14174 2-115 limits assumed): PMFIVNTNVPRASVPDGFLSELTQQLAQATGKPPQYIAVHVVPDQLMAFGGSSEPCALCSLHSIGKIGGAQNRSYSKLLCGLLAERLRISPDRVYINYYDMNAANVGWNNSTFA
Description: In vivo human MIF depletion experiments were undertaken to determine whether MIF-GN3 can mediate the depletion of injected recombinant human MIF from serum in mice. Mice were injected with five μg of the human MIF protein. In this experiment, one group of mice was also injected with a single 10 mpk dose of MIF-GN3 along with human MIF protein. It was observed that after four hours, the average level of human MIF in serum in the PBS-treated mice was 1.76 ng/mL (FIG. 134). In mice treated with 10 mpk MIF-GN3, however, the concentration of human MIF in serum was 0.68 ng/mL. One day after the initial injection, human MIF levels had reached background levels for both conditions. […] It was hypothesized that, due to the short half-life of human MIF in serum, investigating human MIF levels at earlier time points may be more informative.
Next, an experiment was performed to determine whether MIF-GN3 could enhance MIF clearance at time points earlier than four hours. Mice were coinjected with recombinant human MIF and 10 mpk MIF-GN3 via either i.p. or i.v. routes. For the PBS control arms, human MIF was injected with PBS. It was observed that in the absence of MIF-GN3, there was a spike in huMIF levels in circulation after 30 minutes (FIG. 135). In the presence of MIF-GN3, however, levels of MIF protein remained low at 30 minutes and no spike in its concentration was observed. By two hours, the levels of human MIF in circulation decreased to background levels. […] In a further experiment, whether an inhibitor of the MIF protein (3w) is able to mediate the protein's depletion from serum was determined. A bifunctional molecule that mediates the depletion of α-DNP antibody from serum was also assayed as a negative control. Neither of these molecules was expected to mediate the formation of a ternary complex between human MIF protein and ASGPR.
In order to confirm that mice injected with one or ten mpk MIF-GN3 had received the injection, and that the observed stability of MIF concentrations in MIF-GN3 treated mice was not the result of injection error, 200 μg of α-DNP antibody was coinjected with the MIF protein in this experiment. […] An investigation of the ability of MIF-GN3 to mediate the depletion of endogenous mouse MIF in vivo was next undertaken. Mice were treated with either PBS or 10 mpk of MIF-GN3. […] One possible explanation for this finding is that MIF protein may be synthesized rapidly, and any increase in degradation mediated by MIF-GN3 may not be of a large enough magnitude to impact the protein's level in serum.

CC(=O)NC1C(OCCOCCOCCNC(=O)CCOCC(COCCC(=O)NCCOCCOCCOC2OC(CO)C(O)C(O)C2NC(C)=O)(COCCC(=O)NCCOCCOCCOC2OC(CO)C(O)C(O)C2NC(C)=O)NC(=O)CNC(=O)COCCOCCOCCNc2ccc([N+](=O)[O-])cc2[N+](=O)[O-])OC(CO)C(O)C1O (centres unmarked) [DNP-GN3]
concentration of maximal ternary complex formation ([1]; DNP-GN3): 20 nM and 40 nM | concentration of DNP-GN3 eliciting half-maximal fluorescence association ([1]; higher concentration (prozone)): 0.12 µM | concentration of DNP-GN3 eliciting half-maximal fluorescence association ([1]; lower concentration): 0.0074 µM | intracellular fluorescence of adherent HepG2 cells (HepG2 cells [2]; FIG. 87A): dependent on the concentration of both DNP-GN3 and α-DNP antibody | uptake of α-DNP antibody (HepG2 cells [2]; target protein at 1 nM): not effective | colocalization of endocytosed α-DNP antibody with early endosome marker EEA1 (HepG2 cells [3]; FIG. 91A): No colocalization | colocalization of α-DNP antibody with lysosome membrane protein LAMP2 (HepG2 cells [3]; FIG. 91B): strong colocalization | fluorophore accumulation in lysates of HepG2 cells (HepG2 cells [4]): accumulate fluorophore in a time- and DNP-GN3-dependent manner | toxicity to mice ([5]; all tested concentrations, FIGS. 93A-93C): not toxic | body weight or serum liver enzyme levels, control versus treatment groups ([5]; up to 100 mpk, FIGS. 93A-93C): no significant differences | tolerability ([5]; up to doses of 100 mpk): well-tolerated | PC3 tumor growth (PC3 cells): not found to decrease tumor growth | degradation of injected anti-DNP IgG antibodies in mouse serum (α-DNP antibody): can induce degradation | human MIF concentration in serum compared to the PBS control (human MIF): no significant decreases
